# From US20250228984A1, “Metallophore-Radionuclide Complex as Nuclear Imaging Contrast Agents” (priority 2024, published 2025)
# Experiments:
# [1] = tested on: FoxA expressing P. aeruginosa; assay: PET/CT imaging and ex vivo biodistribution of Ga-68 DFO, P. aeruginosa; type: in vivo, Pseudomonas aeruginosa
# [2] = tested on: non-FoxA expressing organisms; assay: PET/CT imaging and ex vivo biodistribution of Ga-68 DFO, non-FoxA organisms; type: in vivo
# [3] = Radio chromatogram stability of gallium bound Pch in serum; type: in vitro ADME
# [4] = tested on: non-fptA expressing organisms; assay: PET/CT imaging and ex vivo biodistribution of Ga-68 pyochelin, non-fptA organisms; type: in vivo; settings: mice with non-fptA expressing organisms
# [5] = tested on: fptA expressing P. aeruginosa; assay: PET/CT imaging and ex vivo biodistribution of Ga-68 pyochelin, P. aeruginosa; type: in vivo, Pseudomonas aeruginosa; settings: mice, bacteria intranasally, probe retro-orbitally ~150-200uCi, PET/CT 1 hour after injection
# Procedure: (§1) An additional in vivo study was performed using only PA01 bacteria. In this example, the bacteria were administered via intra-tracheal route, rather than intra-nasal. This route of administration is limited to 20 uL. Similarly, Ga-68 pyochelin studies were performed as follows: on day 1, PA01 was grown overnight to a concentration of ˜3×10^6 CFU/mL. After overnight incubation, the bacteria was washed with PBS and 100 uL was administered intranasally to each mouse. 5 hours after bacterial administration, Ga-68 was prepared and given retro-orbitally at a dose of ˜150-200uCi per mouse. 1 hour after Ga-68 injection, the mice were imaged via PET/CT, followed by euthanasia for biodistribution of the lungs.
# [6] = iTLC and HPLC characterization of DFO complexes, 64Cu; type: physicochemical; settings: 37° C.
# Procedure: (§2) Extensive HPLC and thin-layer chromatography (TLC) analysis of multiple radiometals with pyochelin or DFO were performed. Radiometals were combined with siderophore at ratio of 20 uCi/ug in 50 uL buffer. Buffers consisted of sodium acetate (NaOAc), ammonium acetate, and HEPES at pH 3.5, 5.5, and 7 respectively. Complexation was heated to either 37° C. for one hour or 50° C. for one hour. Gallium-68 was prepared by concentrating the generator eluate in 0.1 M HCl onto a 30 mg Strata-XC cartridge, which was then air dried and the gallium eluted with three 150 uL aliquots of acetone. Reactions with gallium-68 were then carried out by adding 5 μg of siderophore with 50 uL of pH 3.5 sodium acetate and ˜250 uCi of gallium-68 radiometal and incubated at 37° C. for 20 minutes. Reaction products were placed on HPLC at 5-50% acetonitrile for 15 minutes using a kinetex evo C-18 column.
# [7] = iTLC and HPLC characterization of DFO complexes, 68Ga; type: physicochemical; settings: for DFO complex, pH 3 / DFO complex, pH 5.5: 68Ga, 37° C.
# Procedure: as §2
# [8] = TLC analysis of pyochelin complexation with manganese-52; type: physicochemical
# Procedure: (§3) All radiometals-pyochelin combinations were screened at pH 3.5, 5.5, and 7 at both 37° C. and 50° C. […] (FIG. 4F).
# as §2
# [9] = TLC analysis of pyochelin complexation with titanium-45; type: physicochemical
# Procedure: as §3, §2
# [10] = TLC analysis of pyochelin complexation with gallium-68; type: physicochemical
# Procedure: as §3, §2
# [11] = TLC analysis of pyochelin complexation with zirconium-89; type: physicochemical
# Procedure: as §3, §2
# [12] = Preliminary screen of Cu-64 with different siderophores (complexation); type: physicochemical; settings: for Cu-64 screen with siderophore, pH 3 / Cu-64 screen with siderophore, pH 5.5 / Cu-64 screen with siderophore, pH 7.0 / Cu-64 screen with siderophore, pH 9: 64Cu
# Procedure: Preliminary in vitro data evaluating multiple siderophores with multiple radiometals to understand general binding characteristics was performed. To further evaluate Cu-64 binding affinity with Pch for in vivo applications, in vitro HPLC stability studies were performed to determine the percentage of bound Cu-64-Pch after incubation in serum. Samples were incubated for time points 0, 0.5, 1, 6, and 24. After incubation, samples were prepared for HPLC analysis by adding 500 uL of ammonium acetate with ethanol extraction solvent, spun at 12,000 RPM for 5 minutes. The top 2⁄3 of the supernatant was removed for HPLC analysis. After HPLC stability analysis, multiple HPLC purity studies were performed to determine the relative amount of free copper compared to Pch-bound copper. To prepare for purity analysis, 150 uCi of Cu-64 was incubated for 1 hour with varying amounts of 1 mg/mL pyochelin ranging from 0.5 to 10 uL, with ammonium acetate being added to reach a maximum volume of 350 uL. Additional purity studies were conducted using 150 uCi of Cu-64 along with 10 uL of 1 mg/mL pyochelin and ammonium acetate, but involved varying incubation periods consisting of 10, 20, 30, 45, and 60 minutes at 37° C. Lastly, UV chromatograms of Pch were generated using varying concentrations of Pch in ammonium acetate, consisting of 25, 50, 100, and 200 uL of Pch with ammonium acetate being added to reach 350 uL total volume. All HPLC analysis was conducted using 5-95% acetonitrile gradient over 10 minutes, with a flow rate of 1 mL/min using an Agilent Poroshell 120 EC-C18 column. Extensive HPLC and thin-layer chromatography (TLC) analysis of multiple radiometals with pyochelin or DFO were performed. Radiometals were combined with siderophore at ratio of 20 uCi/ug in 50 uL buffer. Buffers consisted of sodium acetate (NaOAc), ammonium acetate, and HEPES at pH 3.5, 5.5, and 7 respectively. […] Gallium-68 was prepared by concentrating the generator eluate in 0.1 M HCl onto a 30 mg Strata-XC cartridge, which was then air dried and the gallium eluted with three 150 uL aliquots of acetone. Reactions with gallium-68 were then carried out by adding 5 μg of siderophore with 50 uL of pH 3.5 sodium acetate and 250 uCi of gallium-68 radiometal and incubated at 37° C. for 20 minutes. Reaction products were placed on HPLC at 5-50% acetonitrile for 15 minutes using a […] evo C-18 column.
# [13] = TLC analysis of pyochelin complexation with lead-203; type: physicochemical
# Procedure: as §3, §2
# [14] = HPLC stability of Cu-64-Pch after incubation in serum; type: in vitro ADME; settings: after 24 hours of serum incubation
# Procedure: Preliminary in vitro data evaluating multiple siderophores with multiple radiometals to understand general binding characteristics was performed. To further evaluate Cu-64 binding affinity with Pch for in vivo applications, in vitro HPLC stability studies were performed to determine the percentage of bound Cu-64-Pch after incubation in serum. Samples were incubated for time points 0, 0.5, 1, 6, and 24. After incubation, samples were prepared for HPLC analysis by adding ˜500 uL of ammonium acetate with ethanol extraction solvent, spun at 12,000 RPM for 5 minutes. The top ⅔ of the supernatant was removed for HPLC analysis. After HPLC stability analysis, multiple HPLC purity studies were performed to determine the relative amount of free copper compared to Pch-bound copper. To prepare for purity analysis, ˜150 uCi of Cu-64 was incubated for 1 hour with varying amounts of 1 mg/mL pyochelin ranging from 0.5 to 10 uL, with ammonium acetate being added to reach a maximum volume of 350 uL. Additional purity studies were conducted using ˜150 uCi of Cu-64 along with 10 uL of 1 mg/mL pyochelin and ammonium acetate, but involved varying incubation periods consisting of 10, 20, 30, 45, and 60 minutes at 37° C. […]
# [15] = tested on: non-fptA expressing organisms; assay: PET/CT imaging and lung biodistribution of Cu-64 Pch in infected mice, non-fptA organisms; type: in vivo
# Procedure: (§4) In vivo studies were performed using Balb/c mice. On day 1, Pseudomonas aeruginosa (PA01), Klebsiella pneumoniae, E. coli Nissle, E. coli UTI89, or Staphylococcus aureus bacterial concentrations of ˜3×10^6 CFU/mL were prepared via centrifugation at 7 k RPM and washed three times with 1 mL of phosphate-buffered saline (PBS). 100 uL of bacterial concentrates were administered to groups of 3 mice intra-nasally, along with one group receiving 0.9% saline. After 24 hours, Cu-64 Pch was prepared and given retro-orbitally at a dose of ˜150 uCi per mouse. 48 hours after bacterial administration, the mice underwent PET/CT imaging. Immediately after imaging, the mice were sacked, and the lungs harvested for radioactive biodistribution measurements.
# [16] = tested on: fptA expressing P. aeruginosa; assay: PET/CT imaging and lung biodistribution of Cu-64 Pch in infected mice, P. aeruginosa; type: in vivo, Pseudomonas aeruginosa
# Procedure: as §4, §1
# [17] = pH 3.5, 5.5, 7, 37° C. and 50° C.
compound,measurement,setting,value
"CC(=O)N([O-])CCCCCNC(=O)CCC(=O)N([O-])CCCCCNC(=O)CCC(=O)N([O-])CCCCCN.[68Ga+3] [Ga-68 DFO, gallium-68 bound DFO]",uptake of probe in the lungs (in vivo imaging and ex vivo biodistribution),[1],increased uptake
same,uptake of probe in the lungs (in vivo imaging and ex vivo biodistribution),[2],limited uptake
gallium-68 bound pyochelin [Ga-68 Pch],stability in serum (radio chromatogram),[3],high stability in serum
same,uptake of probe in the lungs (in vivo imaging and ex vivo biodistribution),[4],limited uptake
same,uptake of probe in the lungs (in vivo imaging and ex vivo biodistribution),[5],increased uptake
"CC(=O)N(O)CCCCCNC(=O)CCC(=O)N(O)CCCCCNC(=O)CCC(=O)N(O)CCCCCN [DFO, desferrioxamine B]","DFO complex, pH 3",[6]; 20 mins,1
same,"DFO complex, pH 5.5",[6]; 20 mins,4
same,"DFO complex, pH 3",[6]; 60 mins,1
same,"DFO complex, pH 5.5",[6]; 60 mins,1
same,"DFO complex, pH 3",[7]; 20 mins,93
same,"DFO complex, pH 5.5",[7]; 20 mins,62
same,"DFO complex, pH 3",[7]; 60 mins,92
same,"DFO complex, pH 5.5",[7]; 60 mins,98
same,"complexation between Ga-68 and DFO, in words","[7]; pH 3 and pH 5.5, 37° C.",high complexation
"CN1[C@@H]([C@H]2CSC(c3ccccc3O)=N2)SC[C@H]1C(=O)O [PcH, pyochelin]",pH 3.5 (% complex),"[8]; Manganese-52, pH 3.5, 37° C.",1.2 % complex
same,pH 5.5 (% complex),"[8]; Manganese-52, pH 5.5, 37° C.",2.2 % complex
same,pH 7 (% complex),"[8]; Manganese-52, pH 7, 37° C.",1.1 % complex
same,association between pyochelin and manganese-52 (TLC),[8]; [17],mostly poor association
same,pH 3.5 (% complex),"[9]; Titanium-45, pH 3.5, 37° C.",33.1 % complex
same,pH 5.5 (% complex),"[9]; Titanium-45, pH 5.5, 37° C.",72.3 % complex
same,pH 7 (% complex),"[9]; Titanium-45, pH 7, 37° C.",60 % complex
same,association between pyochelin and titanium-45 (TLC),[9]; [17],mostly poor association
same,pH 3.5 (% complex),"[10]; Gallium-68, pH 3.5, 37° C.",100 % complex
same,pH 5.5 (% complex),"[10]; Gallium-68, pH 5.5, 37° C.",100 % complex
same,pH 7 (% complex),"[10]; Gallium-68, pH 7, 37° C.",100 % complex
same,complexation of gallium-68 with pyochelin,"[10]; all three pH conditions (3.5, 5.5, 7) at 37° C.",100%
same,pH 3.5 (% complex),"[11]; Zirconium-89, pH 3.5, 37° C.",22.8 % complex
same,pH 5.5 (% complex),"[11]; Zirconium-89, pH 5.5, 37° C.",73.7 % complex
same,pH 7 (% complex),"[11]; Zirconium-89, pH 7, 37° C.",75.6 % complex
same,association between pyochelin and zirconium-89 (TLC),[11]; [17],mostly poor association
same,"Cu-64 screen with siderophore, pH 3","[12]; 37° C., 60 mins",0
same,"Cu-64 screen with siderophore, pH 5.5","[12]; 37° C., 60 mins",85
same,"Cu-64 screen with siderophore, pH 7.0","[12]; 37° C., 60 mins",95
same,"Cu-64 screen with siderophore, pH 9","[12]; 37° C., 60 mins",0
same,"Cu-64 screen with siderophore, pH 3","[12]; 90° C., 30 mins",0
same,"Cu-64 screen with siderophore, pH 5.5","[12]; 90° C., 30 mins",0
same,"Cu-64 screen with siderophore, pH 7.0","[12]; 90° C., 30 mins",0
same,"Cu-64 screen with siderophore, pH 9","[12]; 90° C., 30 mins",0
same,"complexation of pyochelin with copper-64, in words",[12]; in vitro studies,complexes extremely well
same,binding affinity between Cu-64 and PcH,"[12]; pH 5.5 and pH 7, 37° C.",high binding affinity
same,pH 3.5 (% complex),"[13]; Lead-203, pH 3.5, 37° C.",3 % complex
same,pH 5.5 (% complex),"[13]; Lead-203, pH 5.5, 37° C.",3 % complex
same,pH 7 (% complex),"[13]; Lead-203, pH 7, 37° C.",2 % complex
same,association between pyochelin and lead-203 (TLC),[13]; [17],mostly poor association
copper-64 bound pyochelin [Cu-64-Pch],stability after serum incubation (HPLC),[14],≥ 91%
same,uptake of probe in the lungs (imaging and radioactive biodistribution),"[15]; Balb/c mice infected with non-fptA expressing organisms, probe retro-orbitally ~150 uCi",limited uptake
same,transport of probe into bacterial cells (in vivo images),[15]; bacterial cells that don't express the fptA receptor,not transported
same,uptake of probe in the lungs (imaging and radioactive biodistribution),"[16]; Balb/c mice, bacteria intra-nasally, probe retro-orbitally ~150 uCi, PET/CT 48 hours after bacteria",increased uptake
same,transport of probe into bacterial cells (in vivo images),[16]; P. aeruginosa cells,transported into the P. aeruginosa cells
same,biodistribution levels in lungs,[16]; P. aeruginosa containing lungs,elevated levels
same,"biodistribution and probe accumulation, intra-tracheal compared to intra-nasal bacterial administration",[16]; PA01 administered intra-tracheally vs intra-nasally,significant increase in biodistribution and probe accumulation
